For this assay, the system named is NCI-H524 (ATCC) human lung cancer cells. The format is cell-based. The settings on record: for IC50: Table 15. As to the method:
Conjugates were assessed in an in vitro assay evaluating inhibition of cell proliferation. NCI-H524 (ATCC) human lung cancer cells were plated in 96 well, V-bottomed plates (Costar) at a concentration of 5,000 cells/well and 24 hours later were treated with compound for 2 hours and further incubated 70 hours. Compound starting dose was 20 μM and three-fold serial dilutions were done for a total of ten points. After 2 hours of treatment, cells were spun down, the drug containing media was removed, and fresh complete medium was added and used to resuspend the cells, which were spun again. After removal of the wash media, the cells were resuspended in complete medium, then transferred into white walled, flat bottomed 96 well plates. […] Proliferation was measured using CellTiter Glo reagent using the standard protocol (Promega) and a Glomax multi+detection system (Promega). Percent proliferation inhibition was calculated using the following formula: % inhibition=(control-treatment)/control*100. Control is defined as vehicle alone. IC50 curves were generated using the nonlinear regression analysis (four parameter) with GraphPad Prism 6.
Conjugates of the present invention were assessed in an in vitro assay evaluating inhibition of cell proliferation. NCI-H524 (ATCC) human lung cancer cells were plated in 96 well, V-bottomed plates (Costar) at a concentration of 5,000 cells/well. 24 hours later, cells were treated with either conjugate for 2 hours and further incubated 70 hours, or for octreotide competition experiments, treated with 100 μM octreotide for 30 min, and then treated with conjugate for 2 hours, and further incubated for 70 hours. Conjugate starting dose was 20 μM and three fold serial dilutions were done for a total of ten points. After 2 hours of treatment, cells were spun down, the drug containing media was removed, and fresh complete medium was added and used to resuspend the cells, which were spun again. After removal of the wash media, the cells were resuspended in complete medium, then transferred into white walled, flat bottomed 96 well plates. […] Proliferation was measured using CellTiter Glo reagent using the standard protocol (Promega) and a Glomax multi+detection system (Promega). Percent proliferation inhibition was calculated using the following formula: % inhibition=(control-treatment)/control*100. Control is defined as vehicle alone. IC50 curves were generated using the nonlinear regression analysis (four parameter) with GraphPad Prism 6.
Conjugates of the present invention were tested for their activity dependence on the somatostatin receptor. Active agent Z in the conjugate was selected from auristatin, carbazitaxel, DM1, doxorubicin, platinum, SN-38 and vinblastine. Active agent Z is connected to octreotide with various linkers. Proliferation IC50 values of the conjugates were measured. Proliferation IC50 values of the conjugates without octreotide competition were also measured. The ratio of IC50 with octreotide competition and IC50 without octreotide competition is an indicator of whether activity is at least partially dependent on bind to the somatostatin receptor.

[1] abbreviates: treated 2 hours, further incubated 70 hours, read-out: H524 IC50.
Setting [2] is: read-out: H524 IC50+ 100 uM octreotide, 100 μM octreotide for 30 min, then conjugate 2 hours, 70 hours incubation.

Read-outs that look alike come from different tables or passages of the source. Where only a bound is given, the exact number is not on record here.

`CCCCCCCCCCC(CCN[C@H](Cc1ccccc1)C(=O)N[C@H]1CSSC[C@@H](C(=O)N[C@@H](CO)[C@@H](C)O)NC(=O)[C@H]([C@@H](C)O)NC(=O)[C@H](CCCCN)NC(=O)[C@@H](Cc2c[nH]c3ccccc23)NC(=O)[C@H](Cc2ccccc2)NC1=O)SSCCC(=O)N(C)[C@@H](C)C(=O)O[C@H]1CC(=O)N(C)c2cc(cc(OC)c2Cl)C/C(C)=C/C=C/[C@@H](OC)[C@@]2(O)C[C@H](OC(=O)N2)[C@@H](C)[C@@H]2O[C@@]12C` (stereo partly drawn) [Conjugate 106]: the IC50 runs as follows: under setting [1], 0.4 µM; under setting [2], 0.666 µM.
`COc1cc2cc(c1Cl)N(C)C(=O)C[C@H](OC(=O)[C@H](C)N(C)C(=O)CCSC1CC(=O)N(CC(=O)N[C@H](Cc3ccccc3)C(=O)N[C@H]3CSSC[C@@H](C(=O)N[C@H](CO)[C@@H](C)O)NC(=O)[C@H]([C@@H](C)O)NC(=O)[C@H](CCCCN)NC(=O)[C@@H](Cc4c[nH]c5ccccc45)NC(=O)[C@H](Cc4ccccc4)NC3=O)C1=O)[C@]1(C)O[C@H]1[C@H](C)[C@@H]1C[C@@](O)(NC(=O)O1)[C@H](OC)/C=C/C=C(\C)C2` (stereo partly drawn) [Conjugate 108]: the IC50 turned out to be 0.096 µM under setting [1] and 1.28 µM under setting [2].
Turning to `COc1cc2cc(c1Cl)N(C)C(=O)C[C@H](OC(=O)[C@H](C)N(C)C(=O)CCSSCCC(=O)NCCCC[C@@H](N)C(=O)N[C@H]1CSSC[C@@H](C(=O)N[C@H](C(=O)O)[C@@H](C)O)NC(=O)[C@H]([C@@H](C)O)NC(=O)[C@H](CCCCN)NC(=O)[C@@H](Cc3c[nH]c4ccccc34)NC(=O)[C@H](Cc3ccc(O)cc3)NC1=O)[C@]1(C)O[C@H]1[C@H](C)[C@@H]1C[C@@](O)(NC(=O)O1)[C@H](OC)/C=C/C=C(\C)C2` [Conjugate 113], the IC50 worked out at 1.08 µM under setting [1] and 4.92 µM under setting [2].
Turning to `COc1cc2cc(c1Cl)N(C)C(=O)C[C@H](OC(=O)[C@H](C)N(C)C(=O)CCSSC[C@@H](N)C(=O)N[C@H]1CSSC[C@@H](C(=O)N[C@H](C(=O)O)[C@@H](C)O)NC(=O)[C@H]([C@@H](C)O)NC(=O)[C@H](CCCCN)NC(=O)[C@@H](Cc3c[nH]c4ccccc34)NC(=O)[C@H](Cc3ccc(O)cc3)NC1=O)[C@]1(C)O[C@H]1[C@H](C)[C@@H]1C[C@@](O)(NC(=O)O1)[C@H](OC)/C=C/C=C(\C)C2` [Conjugate 119], the IC50 was 2.66 µM under setting [1] and more than 5 µM under setting [2].
Turning to `C[C@@H](O)[C@@H]1NC(=O)[C@H](CCCCN)NC(=O)[C@@H](Cc2c[nH]c3ccccc23)NC(=O)[C@H](Cc2ccccc2)NC(=O)[C@@H](NC(=O)[C@H](N)Cc2ccccc2)CSSC[C@@H](C(=O)N[C@H](CO)[C@@H](C)O)NC1=O` [Octreotide, octreotide, reference compound], under “octreotide alone”, the “effect on cell proliferation” value was “no significant effect”.

What is called IC50 is the point on the concentration scale where inhibition reaches its midpoint.
